# Columns and labels:
# Echinochloa crus-galli [1] = test: Herbicidal effect test in submerged condition by treatment before weed-generation (1); format: in vivo; settings: 0.64 g/a, water surface treated on day of sowing, 3 weeks after treatment
# Description: (§1) Herbicidal Effect Test in Submerged Condition by Treatment Before Weed-Generation (1)
# (§2) After alluvial soil was placed in a styrol cup of 1/30000 are, water was poured therein and mixed, and adjusted to a submerged condition of water depth 4 cm. After seeds of Echinochloa crus-galli, Scirpus juncoides and Monochoria vaginalis were sown in the cup, rice seedlings at 2.5th leaf stage were transplanted. On the day when the seeds were sown, the wettable powder of the present invention prepared according to Formulation Example 1 was diluted with water so as to give a predetermined formulation amount, and the surface of the water was treated with the diluted wettable powder. The plants were grown by putting the cup in a green house at 25 to 30° C., and investigated on herbicidal effect against each weed 3 weeks after treatment with the herbicide according to the following criteria.
# (§3) 5 Herbicidal rate 90% or more (almost complete death)
# (§4) 4 Herbicidal rate 70% or more and less than 90%
# (§5) 3 Herbicidal rate 40% or more and less than 70%
# (§6) 2 Herbicidal rate 20% or more and less than 40%
# (§7) 1 Herbicidal rate 5% or more and less than 20%
# (§8) 0 Herbicidal rate 5% or less (little effect)
# Monochoria vaginalis [2] = test: as above; format: in vivo; settings: 0.64 g/a, water surface treated on day of sowing, 3 weeks after treatment
# Description: as §1, §2, §3, §4, §5, §6, §7, §8
# Scirpus juncoides [3] = test: as above; format: in vivo; settings: 0.64 g/a, water surface treated on day of sowing, 3 weeks after treatment
# Description: as §1, §2, §3, §4, §5, §6, §7, §8
# Echinochloa crus-galli [4] = test: Herbicidal effect test in submerged condition by treatment during weed-growth stage (1); format: in vivo; settings: 0.64 g/a, treated at 1st to 2nd leaf stage, 3 weeks after treatment
# Experimental: (§9) Herbicidal Effect Test in Submerged Condition by Treatment During Weed-Growth Stage (1) After alluvial soil was placed in a styrol cup of 1/30000 are, water was poured therein and mixed, and adjusted to a submerged condition of water depth 4 cm. After seeds of Echinochloa crus-galli, Scirpus juncoides and Monochoria vaginalis were sown in the cup, the plants were grown by putting the cup in a green house at 25 to 30° C. When Echinochloa crus-galli, Scirpus juncoides and Monochoria vaginalis reached 1st to 2nd leaf stage, the wettable powder of the present invention prepared according to Formulation Example 1 was diluted with water so as to give a predetermined formulation amount, and the surface of the water was treated with the diluted wettable powder. The herbicidal effect for each plant was investigated 3 weeks after treatment with the herbicide according to the criteria indicated in Test Example 1.
# Monochoria vaginalis [5] = test: as above; format: in vivo; settings: 0.64 g/a, treated at 1st to 2nd leaf stage, 3 weeks after treatment
# Experimental: as §9
# Scirpus juncoides [6] = test: as above; format: in vivo; settings: 0.64 g/a, treated at 1st to 2nd leaf stage, 3 weeks after treatment
# Experimental: as §9
# Abutilon avicennae [7] = test: Herbicidal effect test by soil treatment; format: in vivo; settings: 1.6 g/a, 3 weeks after treatment
# Description: (§10) Herbicidal Effect Test by Soil Treatment
# (§11) Sterilized diluvial soil was placed in a plastic box having a size of length 21 cm, width 13 cm and depth 7 cm, seeds Echinochloa crus-galli, Digitaria adscendes, Setaria viridis, Avena fatua, Black-grass, Abutilon avicennae, Ambrosia elatior, Amaranthus retroflexus, Chenopodium album, Polygonum blumei, Stellaria media, Zea mays (corn), Glycine max (soybean), Oryza sativa (rice), Triticum aestivum (wheat) and Beta vulgaris (beat) were sown interspatially, covered with about 1.5 cm of soil, and then the wettable powder of the present invention prepared according to Formulation Example 1 was diluted with water so as to give a predetermined formulation amount, and the surface of the soil was uniformly treated with the diluted wettable powder by use of a small-sized spray. The herbicidal effect for each plant was investigated 3 weeks after treatment with the herbicide according to the criteria indicated in Test Example 1.
# Amaranthus retroflexus [8] = test: Herbicidal effect test by soil treatment; format: in vivo; settings: 1.6 g/a, 3 weeks after treatment
# Description: as §10, §11
# Ambrosia elatior [9] = test: Herbicidal effect test by soil treatment; format: in vivo; settings: 1.6 g/a, 3 weeks after treatment
# Description: as §10, §11
# Beta vulgaris (beet) [10] = test: Herbicidal effect test by soil treatment; format: in vivo; settings: 1.6 g/a, 3 weeks after treatment
# Description: as §10, §11
# Chenopodium album [11] = test: Herbicidal effect test by soil treatment; format: in vivo; settings: 1.6 g/a, 3 weeks after treatment
# Description: as §10, §11
# Digitaria adscendes [12] = test: Herbicidal effect test by soil treatment; format: in vivo; settings: 1.6 g/a, 3 weeks after treatment
# Description: as §10, §11
# Echinochloa crus-galli [13] = test: Herbicidal effect test by soil treatment; format: in vivo; settings: 1.6 g/a, 3 weeks after treatment
# Description: as §10, §11
# Polygonum blumei [14] = test: Herbicidal effect test by soil treatment; format: in vivo; settings: 1.6 g/a, 3 weeks after treatment
# Description: as §10, §11
# Setaria viridis [15] = test: Herbicidal effect test by soil treatment; format: in vivo; settings: 1.6 g/a, 3 weeks after treatment
# Description: as §10, §11
# Stellaria media [16] = test: Herbicidal effect test by soil treatment; format: in vivo; settings: 1.6 g/a, 3 weeks after treatment
# Description: as §10, §11
# corn (Zea mays) [17] = test: Herbicidal effect test by soil treatment; format: in vivo; settings: 1.6 g/a, 3 weeks after treatment
# Description: as §10, §11
# soybean (Glycine max) [18] = test: Herbicidal effect test by soil treatment; format: in vivo; settings: 1.6 g/a, 3 weeks after treatment
# Description: as §10, §11
# direct sown rice [19] = test: Herbicidal effect test by soil treatment; format: in vivo, Oryza sativa; settings: 1.6 g/a, 3 weeks after treatment
# Description: as §10, §11
# Abutilon avicennae [20] = test: Herbicidal effect test by foliage treatment; format: in vivo; settings: 1.6 g/a; foliage treatment after growth of 14 days; 3 weeks after treatment
# Description: (§12) Herbicidal Effect Test by Foliage Treatment
# (§13) Sterilized diluvial soil was placed in a plastic box having a size of length 21 cm, width 13 cm and depth 7 cm, seeds of Echinochloa crus-galli, Digitaria adscendes, Setaria viridis, Avena fatua, Black-grass, Abutilon avicennae, Ambrosia elatior, Amaranthus retroflexus, Chenopodium album, Polygonum blumei, Stellaria media, Zea mays, Glycine max, Oryza sativa, Triticum aestivum and Beta vulgaris were sown interspatially, covered with about 1.5 cm of soil, and then the plants were grown by putting the box in a green house at 25 to 30° C. After growth of 14 days, the wettable powder of the present invention prepared according to Formulation Example 1 was diluted with water so as to give a predetermined formulation amount, and the foliage part was uniformly treated with the diluted wettable powder by use of a small-sized spray. The herbicidal effect for each plant was investigated 3 weeks after treatment with the herbicide according to the criteria indicated in Test Example 1.
# Amaranthus retroflexus [21] = test: Herbicidal effect test by foliage treatment; format: in vivo; settings: 1.6 g/a; foliage treatment after growth of 14 days; 3 weeks after treatment
# Description: as §12, §13
# Ambrosia elatior [22] = test: Herbicidal effect test by foliage treatment; format: in vivo; settings: 1.6 g/a; foliage treatment after growth of 14 days; 3 weeks after treatment
# Description: as §12, §13
# Avena fatua = test: Herbicidal effect test by foliage treatment; format: in vivo; settings: 1.6 g/a; foliage treatment after growth of 14 days; 3 weeks after treatment
# Description: as §12, §13
# Beta vulgaris (beet) [23] = test: Herbicidal effect test by foliage treatment; format: in vivo; settings: 1.6 g/a; foliage treatment after growth of 14 days; 3 weeks after treatment
# Description: as §12, §13
# Black-grass = test: Herbicidal effect test by foliage treatment; format: in vivo; settings: 1.6 g/a; foliage treatment after growth of 14 days; 3 weeks after treatment
# Description: as §12, §13
# Chenopodium album [24] = test: Herbicidal effect test by foliage treatment; format: in vivo; settings: 1.6 g/a; foliage treatment after growth of 14 days; 3 weeks after treatment
# Description: as §12, §13
# Digitaria adscendes [25] = test: Herbicidal effect test by foliage treatment; format: in vivo; settings: 1.6 g/a; foliage treatment after growth of 14 days; 3 weeks after treatment
# Description: as §12, §13
# Echinochloa crus-galli [26] = test: Herbicidal effect test by foliage treatment; format: in vivo; settings: 1.6 g/a; foliage treatment after growth of 14 days; 3 weeks after treatment
# Description: as §12, §13
# Polygonum blumei [27] = test: Herbicidal effect test by foliage treatment; format: in vivo; settings: 1.6 g/a; foliage treatment after growth of 14 days; 3 weeks after treatment
# Description: as §12, §13
# Setaria viridis [28] = test: Herbicidal effect test by foliage treatment; format: in vivo; settings: 1.6 g/a; foliage treatment after growth of 14 days; 3 weeks after treatment
# Description: as §12, §13
# Stellaria media [29] = test: Herbicidal effect test by foliage treatment; format: in vivo; settings: 1.6 g/a; foliage treatment after growth of 14 days; 3 weeks after treatment
# Description: as §12, §13
# [30] = test system: Triticum aestivum (wheat); test: Herbicidal effect test by foliage treatment; format: in vivo; settings: 1.6 g/a; foliage treatment after growth of 14 days; 3 weeks after treatment
# Description: as §12, §13
# corn (Zea mays) [31] = test: Herbicidal effect test by foliage treatment; format: in vivo; settings: 1.6 g/a; foliage treatment after growth of 14 days; 3 weeks after treatment
# Description: as §12, §13
# soybean (Glycine max) [32] = test: Herbicidal effect test by foliage treatment; format: in vivo; settings: 1.6 g/a; foliage treatment after growth of 14 days; 3 weeks after treatment
# Description: as §12, §13
# direct sown rice [33] = test: Herbicidal effect test by foliage treatment; format: in vivo, Oryza sativa; settings: 1.6 g/a; foliage treatment after growth of 14 days; 3 weeks after treatment
# Description: as §12, §13
smiles,measurement,setting,value
"COc1cc(OC)nc(NC(=O)NS(=O)(=O)c2c(C3=NOCC(C)O3)c(C)nn2C)n1 (centres unmarked) [Compound 5, N-((4,6-dimethoxypyrimidin-2-yl)aminocarbonyl)-1,3-dimethyl-4-(5-methyl-5H,6H-1,4,2-dioxadin-3-yl)pyrazole-5-sulfonamide]","herbicidal effect, A: Echinochloa crus-galli",Echinochloa crus-galli [1],5 (Herbicidal rate 90% or more (almost complete death))
same,"herbicidal effect, C: Monochoria vaginalis",Monochoria vaginalis [2],5 (Herbicidal rate 90% or more (almost complete death))
same,"herbicidal effect, B: Scirpus juncoides",Scirpus juncoides [3],5 (Herbicidal rate 90% or more (almost complete death))
same,"herbicidal effect, A: Echinochloa crus-galli",Echinochloa crus-galli [4],5 (Herbicidal rate 90% or more (almost complete death))
same,"herbicidal effect, C: Monochoria vaginalis",Monochoria vaginalis [5],5 (Herbicidal rate 90% or more (almost complete death))
same,"herbicidal effect, B: Scirpus juncoides",Scirpus juncoides [6],5 (Herbicidal rate 90% or more (almost complete death))
same,"herbicidal effect, H: Abutilon avicennae",Abutilon avicennae [7],4 (Herbicidal rate 70% or more and less than 90%)
same,"herbicidal effect, J: Amaranthus retroflexus",Amaranthus retroflexus [8],5 (Herbicidal rate 90% or more (almost complete death))
same,"herbicidal effect, I: Ambrosia elatior",Ambrosia elatior [9],5 (Herbicidal rate 90% or more (almost complete death))
same,"herbicidal effect, f: Beta vulgaris (beet)",Beta vulgaris (beet) [10],5 (Herbicidal rate 90% or more (almost complete death))
same,"herbicidal effect, K: Chenopodium album",Chenopodium album [11],5 (Herbicidal rate 90% or more (almost complete death))
same,"herbicidal effect, D: Digitaria adscendes",Digitaria adscendes [12],5 (Herbicidal rate 90% or more (almost complete death))
same,"herbicidal effect, A: Echinochloa crus-galli",Echinochloa crus-galli [13],5 (Herbicidal rate 90% or more (almost complete death))
same,"herbicidal effect, L: Polygonum blumei",Polygonum blumei [14],5 (Herbicidal rate 90% or more (almost complete death))
same,"herbicidal effect, E: Setaria viridis",Setaria viridis [15],4 (Herbicidal rate 70% or more and less than 90%)
same,"herbicidal effect, M: Stellaria media",Stellaria media [16],5 (Herbicidal rate 90% or more (almost complete death))
same,"herbicidal effect, b: corn (Zea mays)",corn (Zea mays) [17],5 (Herbicidal rate 90% or more (almost complete death))
same,"herbicidal effect, c: soybean (Glycine max)",soybean (Glycine max) [18],5 (Herbicidal rate 90% or more (almost complete death))
same,"herbicidal effect, d: direct sown rice",direct sown rice [19],5 (Herbicidal rate 90% or more (almost complete death))
same,"herbicidal effect, H: Abutilon avicennae",Abutilon avicennae [20],5 (Herbicidal rate 90% or more (almost complete death))
same,"herbicidal effect, J: Amaranthus retroflexus",Amaranthus retroflexus [21],5 (Herbicidal rate 90% or more (almost complete death))
same,"herbicidal effect, I: Ambrosia elatior",Ambrosia elatior [22],5 (Herbicidal rate 90% or more (almost complete death))
same,"herbicidal effect, F: Avena fatua",Avena fatua,5 (Herbicidal rate 90% or more (almost complete death))
same,"herbicidal effect, f: Beta vulgaris (beet)",Beta vulgaris (beet) [23],5 (Herbicidal rate 90% or more (almost complete death))
same,"herbicidal effect, G: Black-grass",Black-grass,5 (Herbicidal rate 90% or more (almost complete death))
same,"herbicidal effect, K: Chenopodium album",Chenopodium album [24],5 (Herbicidal rate 90% or more (almost complete death))
same,"herbicidal effect, D: Digitaria adscendes",Digitaria adscendes [25],5 (Herbicidal rate 90% or more (almost complete death))
same,"herbicidal effect, A: Echinochloa crus-galli",Echinochloa crus-galli [26],5 (Herbicidal rate 90% or more (almost complete death))
same,"herbicidal effect, L: Polygonum blumei",Polygonum blumei [27],5 (Herbicidal rate 90% or more (almost complete death))
same,"herbicidal effect, E: Setaria viridis",Setaria viridis [28],4 (Herbicidal rate 70% or more and less than 90%)
same,"herbicidal effect, M: Stellaria media",Stellaria media [29],5 (Herbicidal rate 90% or more (almost complete death))
same,"herbicidal effect, e: Triticum aestivum (wheat)",[30],5 (Herbicidal rate 90% or more (almost complete death))
same,"herbicidal effect, b: corn (Zea mays)",corn (Zea mays) [31],5 (Herbicidal rate 90% or more (almost complete death))
same,"herbicidal effect, c: soybean (Glycine max)",soybean (Glycine max) [32],5 (Herbicidal rate 90% or more (almost complete death))
same,"herbicidal effect, d: direct sown rice",direct sown rice [33],3 (Herbicidal rate 40% or more and less than 70%)
